“And” between values parts separate entries of the source, which are not always exact repeats. Equal entries are not always repeated.
System: Rabbit Skin
Assay: Rabbit skin irritation
Experimental: Within 24 hours to 4 hours before test application, the backs of female albino New Zealand White rabbits were clipped free of hair, exposing 2 test and 2 control areas on each side of the spine with a size of approximately 15 cm×15 cm. The two test sites are located on the left cranial section and the right caudal section of the dorsal region. The two control sites are located on the left caudal and right cranial section of the dorsal region. FIG. 4 depicts the arrangement of test and control sites. The exposed skin is wiped with alcohol and dried. Rabbits of acceptable skin quality were selected and used for testing.
A 25×25 mm gauze patch saturated with 0.5 mL of 0.9% NaCl is used for the control and applied to the clipped control sites. The patches are secured using hypoallergenic, waterproof, surgical tape over the test and control sites. The animal's trunk is securely wrapped so as to maintain the position of the patches. Patches are left applied for a minimum of four hours.
After patch removal, the test and control sites were then scored for erythema and edema at 1, 24, 48 and 72 hours after patch removal. Only the 24, 48, and 72 hour observations were scored and used for calculations. If no response was expected, testing was conducted using three animals per test article. If irritation was anticipated, one animal was tested initially. If the first animal received a score of 2 or less for either erythema or edema, 2 additional rabbits were used to conclude the test.
This total was divided by the total number of observations. The same was done for the control sites. […] These scores for each animal were added and divided by the total number of animals to give the Primary Irritation Index. […] For any response, the Maximum Irritation Response, the time of onset of the response and the time of maximum response was recorded.
To positively validate the test, 10% sodium dodecyl sulfate (SDS), which is a known dermal irritant, in petroleum jelly was applied to a 2.5 cm×2.5 cm gauze patch. As a negative control, 0.5 mL of 0.9% NaCl was applied to a 2.5 cm×2.5 cm gauze patch. A Primary Irritation Index in the moderate to severe range is considered a positive result. The test system and methods utilized were the same as described above.

[1] = per rabbit, scores of 24, 48 and 72 hour observations added, patch at least four hours, sulfate

Question: How did the “Primary Irritation Index” value (3 animals, 0-0.4 Negligible, 0.5-1.9 Slight, 2-4.9 Moderate, 5-8 Severe) turn out when `CCCCCCCCCCCCOS(=O)(=O)[O-].[Na+]` [10% SDS, sodium dodecyl sulfate] was run?
Answer: Its value is “Total Average (19.3) = 6.4 Primary Irritation Index”.

Question: And the “ED (edema) score” value [1]?
Answer: Its value is 19 and 21 and 14.

Question: And the “ER (erythema) score” value [1]?
Answer: Its value is 21 and 23 and 18.

Question: And the “ER + ED = Total” value (per rabbit, scores of 24, 48 and 72 hour observations added, sulfate)?
Answer: The value was 40 and 44 and 32.

— patent US20250312296A1, “PETROLATUM-BASED PHMB COMPOSITIONS AND METHODS FOR THE TREATMENT OF INFLAMMATORY SKIN DISEASE” (GLOBAL HEALTH SOLUTIONS, INC., priority 2020, published 2025)
